Laboratory results from EPA's ToxValDB 9.5 (doi:10.2903/j.efsa.2018.5307).

Columns and labels:
Typhlodromus pyri = assay: LR50; higher = less toxic; details: acute; mortality
Oryctolagus sp. = details: developmental; development
Apis mellifera = details: acute, mortality
Pimephales promelas = details: chronic/long-term; development
Daphnia magna = details: chronic/long-term; duration: 23 days; reproduction
Cyprinus carpio = details: acute; duration: 96 hours; mortality
Tagia sp. = details: chronic/long-term; reproduction

Question: For `CCOP(=O)=O.CCOP(=O)=O.CCOP(=O)=O.[Al+3]` [Fosetyl aluminum], which LR50 (Typhlodromus pyri) is on record?
Answer: > 8400 g/ha

Question: And the LD50 (Rattus norvegicus; acute, oral, mortality)?
Answer: > 7080 mg/kg-day

Question: And the NOAEL (Rattus norvegicus; reproduction developmental, body weight)?
Answer: 482 mg/kg-day

Question: What about the NOAEL (Oryctolagus sp.) of the same compound?
Answer: 100 mg/kg-day

Question: And the LD50 (Apis mellifera; dermal)?
Answer: > 100 µg/piece

Question: And the LD50 (Apis mellifera; oral, unspecified)?
Answer: > 140 µg/piece

Question: What about the NOEC (Pimephales promelas) of the same compound?
Answer: 0.213 mg/L

Question: What about the NOEC (Daphnia magna) of the same compound?
Answer: 10.1 mg/L

Question: What about the LC50 (Cyprinus carpio) of the same compound?
Answer: > 100 mg/L

Question: What about the LD50 (Colinus virginianus; acute, oral, mortality) of the same compound?
Answer: > 2000 mg/kg-day

Question: And the NOEL (Colinus virginianus; reproduction developmental)?
Answer: 216 mg/kg-day

Question: And the NOEC (Tagia sp.)?
Answer: 164 mg/kg
